Measurements from PMC11434354, “Metabolic and Pharmacokinetic Profiling Studies of N, N-Dimethylaniline-Heliamine in Rats by UHPLC-Q-Orbitrap MS/MS” (Molecules, 2024).
Like-named read-outs stand apart in the source and are kept apart here.

Experiments:
[1] = Pharmacokinetic study of DH in rats after oral and intravenous administration (non-compartmental analysis); format: in vivo, male Sprague–Dawley (SD) rats; details: for MRT last: read-out: MRT0–t; for MRT inf: read-out: MRT0–∞; for half-life: read-out: T1/2 (terminal half-life) (converted)
Procedure: The Xinjiang Medical University (Xinjiang, China) provided twelve male Sprague–Dawley (SD) rats (weight 200 ± 20 g). The Animal Experimentation Ethics Committee of Xinjiang Medical University gave its approval to all animal experiments. DH was created using a mixture consisting of 2% ethanol, 8% Kolliphor, and 90% distilled water. Twelve rats were selected randomly and divided into two groups. Before administering the oral dose, the rats were fasted for 12 h but were allowed access to water. Each rat in the oral group was orally given 19.2 mg/kg of DH. Blood samples were collected from their ophthalmic veins at 0, 0.25, 0.5, 1, 1.5, 2, 4, 8, 12, and 24 h for the oral study. In the intravenous group, each rat was given an intravenous tail injection of 1.9 mg/kg of DH. Blood was collected from their ocular veins at 0, 0.1, 0.25, 0.5, 0.75, 1, 1.5, 3.4, 7.5, 12, and 24 h for further analysis. The collected plasma was thereafter subjected to centrifugation (14,000 rpm) for 10 min in a 1.5 mL polyethylene collection tube with EDTA. Following centrifugation, the supernatant was stored in a refrigerator at –80 °C.
Rat plasma samples were assessed for DH using a Thermo Fisher Scientific Q Exactive Plus Orbitrap MS and a Dionnex Ultimate 3000 RSL nano System (Thermo Fisher Scientific, Bremen, Germany). Chromatographic separation was performed with a pre-column (1.7 µm) and an ACQUITY UHPLC BEH C18 column (2.1 × 75 mm, 1.7 µm). The procedure utilized a 10 µL injection volume and was carried out for 5 min at 0.2 mL/min isocratic (70%A (0.1% formic acid in water): 30%B (acetonitrile)). The temperature of the RS autosampler was maintained at 10 °C, and the column was set at 35 °C. Positive electrospray ionization (ESI) and the Parallel Reaction Monitor (PRM) mode were employed to identify DH and the IS. AGC targets were set at 1 × 10^6, the maximum iteration time at 100 ms, the spray voltage at 3.2 kV, the capillary temperature at 320 °C, the S-lens RF level at 55, and 10 and 38 for the IS of the high collision dissociation cell of DH were the MS parameters used. The PRM transitions for DH and IS were 313.19/192.10 (m/z) and 400.18/310.12 (m/z), respectively.
Dissolve PK samples were stored at −80 °C at room temperature. We added 10 µL of 30% acetonitrile water and vortexed it for 3 s. We then added 10 µL of IS and vortexed it for 3 s. Then, 300 µL of acetonitrile was added to the above plasma, vortexed for 1 min, and centrifuged for 7 min. The mixture supernatant was collected and blown dry at 40 °C under nitrogen. Blow-dried samples were re-dissolved in 100 μL of 30% acetonitrile in water and centrifuged for 7 min.
Twelve male SD rats, weighing […], were used to perform PK studies on DH. SD rats fasted for 12 h before administration, but the water was freely available. Normal drinking and eating resumed four hours after administration. To study the bioavailability and PK parameters of DH, rats were randomly divided into two groups. The dose administered was 1.9 mg/kg for the intravenous group and 19.2 mg/kg for the oral administration group. Oral bioavailability was calculated using Equation (2) as follows:Oral bioavailability (%) = (AUCp.o. × Dosei.v./AUCi.v. × Dosep. o.) × 100%(2)
The Q Exactive Plus Orbitrap MS data were acquired using the Thermo Xcalibur 4.2. software (Thermo Fisher Scientific, Waltham, MA, USA). The Qual Browser was used to extract ion chromatograms for screening candidate metabolites with a mass tolerance of 5 ppm and a mass precision of 4 decimals. In addition, MS/MS fragment ions were extracted for structural confirmation of candidate metabolites. The Qual Browser was used for the quantification of DH in rat plasma. Pharmacokinetic parameters were processed using the non-compartmental pharmacokinetic data analysis software program of MaS Studio 1.5.2.14 stable (Shanghai Boca Pharmaceutical Technology Co., Shanghai, China). Finally, the results were described as arithmetic mean ± SD.

[2] = set-up: method as in doi:10.37547/TAJMSPR/Volume02Issue07-17; details: rats, compared with verapamil; cited from earlier work
[3] = system: Sarcoplasmic reticulum RyR2Ca^2+ channels; set-up: method as in doi:10.13005/bpj/1892; details: cited from earlier work
[4] = set-up: method as in doi:10.37547/TAJMSPR/Volume02Issue07-17; details: cited from earlier work
[5] = I.V. 1.9 mg/kg, n = 6, mean ± SD
[6] = P.O. 19.2 mg/kg, n = 6, mean ± SD
[7] = male, Sprague-Dawley, rat, plasma, iv, I.V. 1.9 mg/kg, n = 6, mean ± SD
[8] = male, Sprague-Dawley, rat, plasma, po, P.O. 19.2 mg/kg, n = 6, mean ± SD

COc1cc2c(cc1OC)C(c1ccc(N(C)C)cc1)NCC2 (stereo not shown) [DH, N, N-dimethylaniline-heliamine]
AUC0–t [1, 5]: 439 ± 30.1 ng·h/mL
AUC0–∞ [1, 5]: 495 ± 36.4 ng·h/mL
Vd (apparent volume of distribution) ([1]; I.V. 1.9 mg/kg, n = 6, mean ± SD, 1.9 mg/kg): 15,514.58 ± 2159.74 mL/kg
AUC0–t [1, 6]: 707 ± 265 ng·h/mL
AUC0–∞ [1, 6]: 748 ± 279 ng·h/mL
CL (clearance) [1, 6]: 30,148.65 ± 15,354.27 mL/h/kg
Vd (apparent volume of distribution) [1, 6]: 126,728.09 ± 56,867.09 mL/kg
Vd ([1]; male, Sprague-Dawley, rat, plasma, iv, 1.9 mg/kg, I.V. 1.9 mg/kg, n = 6, mean ± SD, read-out: Vd (apparent volume of distribution)): 15.1 L/kg
Cmax [1, 7]: 183 ± 33.6 ng/mL
clearance ([1]; male, Sprague-Dawley, rat, plasma, iv, I.V. 1.9 mg/kg, n = 6, mean ± SD, read-out: CL (clearance) (converted)): 64.3 mL/min/kg
MRT last [1, 7]: 2.49 ± 0.33 h
MRT inf [1, 7]: 3.56 ± 0.26 h
half-life [1, 7]: 2.79 ± 0.34 h
bioavailability ([1]; male, Sprague-Dawley, rat, plasma, oral, P.O. 19.2 mg/kg vs I.V. 1.9 mg/kg, read-out: Fabs (absolute oral bioavailability)): 16.1%
Cmax [1, 8]: 121 ± 42.4 ng/mL
Tmax [1, 8]: 1.5 h
MRT last [1, 8]: 4.07 ± 0.34 h
MRT inf [1, 8]: 4.76 ± 0.4 h
half-life [1, 8]: 2.96 ± 0.32 h
Acute toxicity parameters [2]: more than six times lower than those of verapamil
inhibition of sarcoplasmic reticulum RyR2 Ca2+ channels [3]: inhibited
antiarrhythmic activity [4]: promising antiarrhythmic activity
